Values after ≈ are worked out from the molar mass of the structure shown. Blank lines part the entries; values can stand above or below the compound they belong to. Peptide text beside a SMILES is read from it.
Tests used:
S. aureus ATCC 49230 = assay: microbe, parasite or virus in culture
Source text: (§1) A total of 18 bacterial strains relevant to orthopedic infections were used for microbiological tests, including 8 ATCC (American Type Culture Collection, ATCC, Manassas, VA, USA) and 10 clinical isolates (CI) from the Laboratory of Clinical Chemistry and Microbiology, IRCCS Ospedale Galeazzi–Sant’Ambrogio of Milan (Italy) strain collection. The ATCC strains were used for the first screening (MIC/MBC) of all the AMPs produced, while the clinical isolates were used for further MIC/MBC assays on selected AMPs. Among CI, S. epidermidis GOI1153754-03-14 has been already characterized and used in previous studies. All the strains were stocked at −80°C and working stocks were stored at −20 °C. At the occurrence, the bacteria were resuscitated in Brain Hearth Infusion (BHI, Millipore, Milan, Italy) broth at 37 °C for 18 h from the working stocks.
(§2) To determine the minimum inhibitory concentration (MIC) and the minimum bactericidal concentration (MBC), ISO20776-1 and Clinical and Laboratory Standards Institute guidelines were followed. A commercial synthetic LL-37 (Aurogene, Rome, Italy) was used as the control in the MIC and MBC assays. A stock solution of each AMP was prepared at 600 µg/mL to achieve a final concentration of 300 µg/mL. […] The MIC was determined according to the aforementioned standard guidelines. The MBC was determined by plating 2 µL of culture from each well of the MIC plates on a Tryptic Soy Agar (TSA, Millipore, Milan, Italy) plate and incubated for 24 h at 37 °C. The concentration at which there was no growth was recorded as MBC. Each experiment was carried out in triplicate. Representative MIC and MBC values for vancomycin and gentamicin were assessed to offer a benchmark comparison for the AMPs. Quality control was conducted with Staphylococcus aureus ATCC 29,213 and vancomycin according to EUCAST guidelines.

[1] = test system: S. epidermidis ATCC 14990; assay: microbe, parasite or virus in culture
Source text: as §1, §2

[2] = test system: S. epidermidis ATCC 35984; assay: microbe, parasite or virus in culture
Source text: as §1, §2

S. aureus ATCC 43300 = assay: microbe, parasite or virus in culture
Source text: as §1, §2

S. aureus ATCC 25923 = assay: microbe, parasite or virus in culture
Source text: as §1, §2

E. coli ATCC 25922 = assay: microbe, parasite or virus in culture
Source text: as §1, §2

P. aeruginosa ATCC 27853 = assay: microbe, parasite or virus in culture
Source text: as §1, §2

[3] = test system: S. epidermidis GOI1153754-03-14 (CI); assay: microbe, parasite or virus in culture
Source text: as §1, §2

P. aeruginosa Pae61 (CI) = conditions: P. aeruginosa Pae61 clinical isolate; triplicate
Source text: as §1, §2

S. aureus Sau221 (CI) = conditions: S. aureus Sau221 clinical isolate; triplicate
Source text: as §1, §2

P. aeruginosa Pae82 (CI) = conditions: P. aeruginosa Pae82 clinical isolate; triplicate
Source text: as §1, §2

S. aureus Sau89 (CI) = conditions: S. aureus Sau89 clinical isolate; triplicate
Source text: as §1, §2

P. aeruginosa Pae2 (CI) = conditions: P. aeruginosa Pae2 clinical isolate; triplicate
Source text: as §1, §2

E. coli Eco75 (CI) = conditions: E. coli Eco75 clinical isolate; triplicate
Source text: as §1, §2

E. coli Eco53 (CI) = conditions: E. coli Eco53 clinical isolate; triplicate
Source text: as §1, §2

E. coli Eco61 (CI) = conditions: E. coli Eco61 clinical isolate; triplicate
Source text: as §1, §2

S. aureus Sau39 (CI) = conditions: S. aureus Sau39 clinical isolate; triplicate
Source text: as §1, §2

Minimum Inhibitory Concentration (MIC) (S. aureus ATCC 49230; ATCC 49230, 18 h): 75.00 µg/mL
Minimum Inhibitory Concentration (MIC) ([1]; ATCC 14990, 18 h): 18.75 µg/mL
Minimum Inhibitory Concentration (MIC) ([2]; ATCC 35984, 18 h): 37.50 µg/mL
Minimum Inhibitory Concentration (MIC) (S. aureus ATCC 43300; ATCC 43300, 18 h): 150.00 µg/mL
Minimum Inhibitory Concentration (MIC) (S. aureus ATCC 25923; ATCC 25923, 18 h): 150.00 µg/mL
Minimum Inhibitory Concentration (MIC) (E. coli ATCC 25922; ATCC 25922, 18 h): 75.00 µg/mL
Minimum Inhibitory Concentration (MIC) (P. aeruginosa ATCC 27853; ATCC 27853, 18 h): 150.00 µg/mL
Structure (SMILES): CC[C@H](C)[C@H](NC(=O)[C@H](CCCCN)NC(=O)[C@H](CCC(=O)O)NC(=O)[C@H](CCCCN)NC(=O)[C@@H](N)CO)C(=O)NCC(=O)N[C@@H](CCCCN)C(=O)N[C@@H](CCC(=O)O)C(=O)N[C@@H](Cc1ccccc1)C(=O)N[C@@H](CCCCN)C(=O)N[C@@H](CCCNC(=N)N)C(=O)N[C@H](C(=O)N[C@H](C(=O)N[C@@H](CCC(N)=O)C(=O)N[C@@H](CCCNC(=N)N)C(=O)N[C@H](C(=O)N[C@@H](CCCCN)C(=O)N[C@@H](CC(=O)O)C(=O)N[C@@H](Cc1ccccc1)C(=O)N[C@@H](CC(C)C)C(=O)N[C@@H](CCCNC(=N)N)C(=O)N[C@@H](CC(N)=O)C(=O)N[C@@H](CC(C)C)C(=O)N[C@H](C(N)=O)C(C)C)[C@@H](C)CC)C(C)C)[C@@H](C)CC [SK-24] (H-SKEKIGKEFKRIVQRIKDFLRNLV-NH2)
Minimum Bactericidal Concentration (MBC) (S. aureus ATCC 49230; ATCC 49230, 24 h): >300.00 µg/mL
Minimum Bactericidal Concentration (MBC) ([1]; ATCC 14990, 24 h): 150.00 µg/mL
Minimum Bactericidal Concentration (MBC) ([2]; ATCC 35984, 24 h): 300.00 µg/mL
Minimum Bactericidal Concentration (MBC) (S. aureus ATCC 43300; ATCC 43300, 24 h): >300.00 µg/mL
Minimum Bactericidal Concentration (MBC) (S. aureus ATCC 25923; ATCC 25923, 24 h): >300.00 µg/mL
Minimum Bactericidal Concentration (MBC) (E. coli ATCC 25922; ATCC 25922, 24 h): 75.00 µg/mL
Minimum Bactericidal Concentration (MBC) (P. aeruginosa ATCC 27853; ATCC 27853, 24 h): 150.00 µg/mL

Susceptibility category by MIC (EUCAST clinical breakpoints tables, v. 14) ([3]; S. epidermidis GOI1153754-03-14): R
MIC ([3]; Staphylococcus epidermidis, read-out: Minimum Inhibitory Concentration (MIC)): > 20 µg/mL
Susceptibility category by MIC (EUCAST clinical breakpoints tables, version 14) (S. aureus ATCC 43300; S. aureus 43,300 as printed in text): S
MIC (S. aureus ATCC 43300; Staphylococcus aureus, ATCC43300, read-out: Minimum Inhibitory Concentration (MIC)): 0.6 µg/mL (≈ 1.26 µM)
Susceptibility category by MIC (EUCAST clinical breakpoints tables, v. 14) (S. aureus ATCC 25923; S. aureus 25923): S
MIC (S. aureus ATCC 25923; Staphylococcus aureus, ATCC25923, read-out: Minimum Inhibitory Concentration (MIC)): 0.6 µg/mL (≈ 1.26 µM)
Susceptibility category by MIC (EUCAST clinical breakpoints tables, v. 14) (E. coli ATCC 25922; E. coli 25922): S
MIC (E. coli ATCC 25922; Escherichia coli, ATCC25922, read-out: Minimum Inhibitory Concentration (MIC)): 0.6 µg/mL (≈ 1.26 µM)
Susceptibility category by MIC (EUCAST clinical breakpoints tables, v. 14) (P. aeruginosa ATCC 27853; P. aeruginosa 27853): S
MIC (P. aeruginosa ATCC 27853; Pseudomonas aeruginosa, ATCC27853, read-out: Minimum Inhibitory Concentration (MIC)): 0.6 µg/mL (≈ 1.26 µM)
Structure (SMILES): CNC(C)C1CCC(N)C(OC2C(N)CC(N)C(OC3OCC(C)(O)C(NC)C3O)C2O)O1 (stereo not shown) [Gen, gentamicin]
MBC ([3]; Staphylococcus epidermidis, read-out: Minimum Bactericidal Concentration (MBC)): > 20 µg/mL
MBC (S. aureus ATCC 43300; Staphylococcus aureus, ATCC43300, 24 h, read-out: Minimum Bactericidal Concentration (MBC)): 2.5 µg/mL (≈ 5.23 µM)
MBC (S. aureus ATCC 25923; Staphylococcus aureus, ATCC25923, 24 h, read-out: Minimum Bactericidal Concentration (MBC)): 2.5 µg/mL (≈ 5.23 µM)
MBC (E. coli ATCC 25922; Escherichia coli, ATCC25922, 24 h, read-out: Minimum Bactericidal Concentration (MBC)): 2.5 µg/mL (≈ 5.23 µM)
MBC (P. aeruginosa ATCC 27853; Pseudomonas aeruginosa, ATCC27853, 24 h, read-out: Minimum Bactericidal Concentration (MBC)): 2.5 µg/mL (≈ 5.23 µM)

Structure (SMILES): CC[C@H](C)[C@H](NC(=O)[C@H](CCCCN)NC(=O)[C@H](CCC(=O)O)NC(=O)[C@H](CCCCN)NC(=O)[C@H](CO)NC(=O)[C@H](CCCCN)NC(=O)[C@H](CCCNC(=N)N)NC(=O)[C@H](Cc1ccccc1)NC(=O)[C@H](Cc1ccccc1)NC(=O)[C@H](CC(=O)O)NC(=O)CNC(=O)[C@H](CC(C)C)NC(=O)[C@@H](N)CC(C)C)C(=O)NCC(=O)N[C@@H](CCCCN)C(=O)N[C@@H](CCC(=O)O)C(=O)N[C@@H](Cc1ccccc1)C(=O)N[C@@H](CCCCN)C(=O)N[C@@H](CCCNC(=N)N)C(=O)N[C@H](C(=O)N[C@H](C(=O)N[C@@H](CCC(N)=O)C(=O)N[C@@H](CCCNC(=N)N)C(=O)N[C@H](C(=O)N[C@@H](CCCCN)C(=O)N[C@@H](CC(=O)O)C(=O)N[C@@H](Cc1ccccc1)C(=O)N[C@@H](CC(C)C)C(=O)N[C@@H](CCCNC(=N)N)C(=O)N[C@@H](CC(N)=O)C(=O)N[C@@H](CC(C)C)C(=O)N[C@H](C(=O)N1CCC[C@H]1C(=O)N[C@@H](CCCNC(=N)N)C(=O)N[C@H](C(=O)N[C@@H](CCC(=O)O)C(=O)N[C@@H](CO)C(=O)O)[C@@H](C)O)C(C)C)[C@@H](C)CC)C(C)C)[C@@H](C)CC [cLL-37, reference compound]
Minimum Inhibitory Concentration (MIC) (S. aureus ATCC 49230; S. aureus 49230, ISO20776-1/CLSI, triplicate): 75.00 µg/mL
Minimum Bactericidal Concentration (MBC) (S. aureus ATCC 49230; S. aureus 49230, plated on TSA, 24 h 37 °C, triplicate): >300.00 µg/mL
Minimum Bactericidal Concentration (MBC) ([3]; S. epidermidis GOI1153754-03-14 clinical isolate, triplicate): >300.00 µg/mL
Minimum Bactericidal Concentration (MBC) ([1]; S. epidermidis 14990, 2 µL from MIC wells plated on TSA, 24 h 37 °C, triplicate): 75.00 µg/mL
Minimum Inhibitory Concentration (MIC) ([1]; S. epidermidis 14990, ISO20776-1/CLSI, triplicate): 75.00 µg/mL
Minimum Inhibitory Concentration (MIC) ([2]; S. epidermidis 35984, ISO20776-1/CLSI, triplicate): 9.38 µg/mL
Minimum Bactericidal Concentration (MBC) ([2]; S. epidermidis 35984, plated on TSA, 24 h 37 °C, triplicate): >300.00 µg/mL
Minimum Inhibitory Concentration (MIC) (S. aureus ATCC 43300; S. aureus 43300, ISO20776-1/CLSI, triplicate): 75.00 µg/mL
Minimum Bactericidal Concentration (MBC) (S. aureus ATCC 43300; S. aureus 43300, plated on TSA, 24 h 37 °C, triplicate): >300.00 µg/mL
Minimum Inhibitory Concentration (MIC) (S. aureus ATCC 25923; S. aureus 25923, ISO20776-1/CLSI, triplicate): 37.50 µg/mL
Minimum Bactericidal Concentration (MBC) (S. aureus ATCC 25923; S. aureus 25923, plated on TSA, 24 h 37 °C, triplicate): >300.00 µg/mL
Minimum Bactericidal Concentration (MBC) (E. coli ATCC 25922; E. coli 25922, plated on TSA, 24 h 37 °C, triplicate): 75.00 µg/mL
Minimum Inhibitory Concentration (MIC) (P. aeruginosa ATCC 27853; P. aeruginosa 27853, ISO20776-1/CLSI, triplicate): 37.50 µg/mL
Minimum Bactericidal Concentration (MBC) (P. aeruginosa ATCC 27853; P. aeruginosa 27853, plated on TSA, 24 h 37 °C, triplicate): 75.00 µg/mL
Minimum Bactericidal Concentration (MBC) (P. aeruginosa Pae61 (CI)): 150.00 µg/mL
Minimum Inhibitory Concentration (MIC) (P. aeruginosa Pae61 (CI)): 37.50 µg/mL
Minimum Bactericidal Concentration (MBC) (S. aureus Sau221 (CI)): >300.00 µg/mL
Minimum Inhibitory Concentration (MIC) (S. aureus Sau221 (CI)): >300.00 µg/mL
Minimum Bactericidal Concentration (MBC) (P. aeruginosa Pae82 (CI)): 75.00 µg/mL
Minimum Inhibitory Concentration (MIC) (P. aeruginosa Pae82 (CI)): 37.50 µg/mL
Minimum Bactericidal Concentration (MBC) (S. aureus Sau89 (CI)): >300.00 µg/mL
Minimum Inhibitory Concentration (MIC) (S. aureus Sau89 (CI)): >300.00 µg/mL
Minimum Bactericidal Concentration (MBC) (P. aeruginosa Pae2 (CI)): 75.00 µg/mL
Minimum Inhibitory Concentration (MIC) (P. aeruginosa Pae2 (CI)): 75.00 µg/mL
Minimum Bactericidal Concentration (MBC) (E. coli Eco75 (CI)): 300.00 µg/mL
Minimum Inhibitory Concentration (MIC) (E. coli Eco75 (CI)): 37.50 µg/mL
Minimum Bactericidal Concentration (MBC) (E. coli Eco53 (CI)): 300.00 µg/mL
Minimum Inhibitory Concentration (MIC) (E. coli Eco53 (CI)): 37.50 µg/mL
Minimum Bactericidal Concentration (MBC) (E. coli Eco61 (CI)): 75.00 µg/mL
Minimum Inhibitory Concentration (MIC) (E. coli Eco61 (CI)): 37.50 µg/mL
Minimum Bactericidal Concentration (MBC) (S. aureus Sau39 (CI)): >300.00 µg/mL
Minimum Inhibitory Concentration (MIC) (S. aureus Sau39 (CI)): 150.00 µg/mL
